Reference: PMC11790763, “A Peptide Motif Covering Splice Site B in Neuroligin-1 Binds to Aβ and Acts as a Neprilysin Inhibitor” (Molecular Neurobiology, 2024)
Where a SMILES comes first, the peptide text is derived from it. Bridges are numbered along the chain shown (N, C = ends). Roman numbers before positions name the chains, in order. Where no end group is shown, it is not given here.

Legend:
[1] = target: T1, Aβ1-40 (Homo sapiens, UniProt P05067); assay: Competitive ELISA, binding to biotinylated Aβ1-40; settings: Table 1, title prints Aβ1-42, text and method Aβ1-40, IC50 interpreted as KD
T1 construct: biotinylated Aβ1-40, at final concentration 400 nM; purchased Bachem AG (Bubendorf, Switzerland) or Schafer-N; host or cells: synthetic peptide
T1 sequence (P05067 672-711): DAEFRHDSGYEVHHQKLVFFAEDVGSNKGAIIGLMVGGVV
Method: NL1 and NL1-derived peptide binding to Aβ was measured by competitive ELISA using the shorter Aβ1-40 peptide with a slower polymerization constant, optimized for this binding assay. Recombinant NL1 (3.125 nM) was immobilized on a poly-sorb 96-well plate (NUNC, Roskilde, Denmark) using sodium bicarbonate buffer (pH 9.6), and left overnight at 4 °C, followed by washing with PBST buffer (PBS supplemented with 0.1% [vol/vol] Tween-20, pH 7.4). In separate tubes, biotinylated Aβ1-40, at final concentration 400 nM, was premixed with serially diluted NL1 or NL1-derived peptides for 30 min. A reversed version of Aβ (Aβ40-1) was used as the respective negative control (Supplementary Fig. 1). After preincubation, the samples were centrifuged at 20,000 × g for 10 min at 4 °C and 100 μl of the mixtures were transferred in triplicates onto the precoated ELISA plate. Plates were incubated at room temperature for 4 h, followed by washing and incubation with streptavidin-HRP conjugate (1:1000, 1 h; Dako, Glostrup, Denmark). The signal was developed with TMB ONE (KEM-EN-TEC, Denmark), and the reaction was terminated with 0.2 M H2SO4. Absorbance was measured at 450 nm on a Wallac VICTOR2 1420 Multilabel Counter (PerkinElmer, Hvidovre, Denmark). KD values were derived by sigmoidal dose–response (variable slope) fit of NL1 and neurolide dose–response curves after log transformation according to GraphPad Prism (version 6, GraphPad, San Diego, CA, USA). Obtained inhibitory concentration IC50 value was interpreted as KD value.

[2] = target: Recombinant rat neuroligin-1 (NL1), soluble extracellular domain (rat) (UniProt Q62765); assay: SPR; Biacore 2000; about 2000 RU of NL1 immobilised on a CM4 chip by amine coupling; 25 °C; HBS-P (10 mM HEPES pH 7.4, 150 mM NaCl, 0.005% P20) with 3 mM CaCl2; 20 μl/min; 1:1 Langmuir model; apparent KD = kd/ka
[3] = target: T2, recombinant neprilysin (NEP) (Homo sapiens, UniProt P08473); assay: Neprilysin activity assay with recombinant enzyme (SensoLyte 520); assay type: biochemical; settings: peptide 5 μM, equimolar to neurolide; 5-FAM/QXL substrate, 2 h; four to five independent experiments
T2 construct: purchased Anaspec, Fremont, California, USA (SensoLyte 520 Neprilysin Activity Assay Kit)
T2 sequence (P08473 whole entry): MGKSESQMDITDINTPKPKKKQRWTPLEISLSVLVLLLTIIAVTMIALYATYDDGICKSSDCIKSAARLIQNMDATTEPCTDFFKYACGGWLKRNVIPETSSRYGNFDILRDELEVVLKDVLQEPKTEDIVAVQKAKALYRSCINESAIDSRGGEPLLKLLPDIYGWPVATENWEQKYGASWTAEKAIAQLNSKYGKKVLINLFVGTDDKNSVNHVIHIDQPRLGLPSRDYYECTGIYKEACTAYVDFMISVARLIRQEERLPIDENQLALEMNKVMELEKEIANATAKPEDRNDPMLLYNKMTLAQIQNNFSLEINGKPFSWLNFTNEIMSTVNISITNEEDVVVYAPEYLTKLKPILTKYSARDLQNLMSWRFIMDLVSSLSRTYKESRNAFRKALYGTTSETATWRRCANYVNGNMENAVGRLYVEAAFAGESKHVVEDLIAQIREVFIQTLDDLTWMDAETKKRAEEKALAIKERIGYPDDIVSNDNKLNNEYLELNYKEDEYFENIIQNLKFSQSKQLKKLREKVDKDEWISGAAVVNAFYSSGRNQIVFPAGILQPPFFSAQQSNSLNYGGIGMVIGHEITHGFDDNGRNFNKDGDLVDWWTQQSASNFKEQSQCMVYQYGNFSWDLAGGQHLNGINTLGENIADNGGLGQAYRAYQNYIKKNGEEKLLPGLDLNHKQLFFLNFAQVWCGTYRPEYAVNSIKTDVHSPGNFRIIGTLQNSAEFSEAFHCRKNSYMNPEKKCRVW
Method: NEP activity was measured using the SensoLyte 520 Neprilysin Activity Assay Kit *Fluorimetric* (Anaspec, Fremont, California, USA) following the protocol provided by the manufacturer. Briefly, Aβ1-42 was dissolved in anhydrous DMSO to a stock concentration of 5 mM, followed by dilutions in assay buffer (100 μM, 50 μM, and 5 μM). Both NL1 (3 μM, 1 μM, 0.3 μM, 0.1 μM) and neurolide (100, 10, 5, and 1 μM) were dissolved in assay buffer. Randomly selected two additional NL1-derived peptides, NLp4, and NLp7 (5 μM, Table 1), were included in the analysis. The NEP solution (40 μl) was mixed with 10 μl of either NL1 or peptides and supplemented with 50 μl of NEP substrate (5-FAM/QXL), and the final mixture was incubated in black optical-bottom 96-well plate (Nunc, Rochester, New York, USA). In co-stimulation experiments, Aβ1-42, prepared as described above, was added to the solution in final concentrations either 0.5 μM or 5 μM. The fluorescence signal was recorded at Ex/Em = 485/535 nm every 20 min for 2 h. The data are presented as the relative activity of NEP alone.

[4] = target: T3, Aβ1-42 (Homo sapiens, UniProt P05067); assay: Aβ1-42 aggregation assay (thioflavin T fluorescence); settings: 75 μM Aβ1-42 + 10 μM peptide, 37 °C, 8 days, 50 mM Tris pH 7.4, ThT 5 μM, triplicates; slopes compared with Aβ alone
T3 construct: Aβ1-42, at a final concentration of 75 μM (pH 7.4); purchased Bachem AG (Bubendorf, Switzerland) or Schafer-N; host or cells: synthetic peptide
T3 sequence (P05067 672-713): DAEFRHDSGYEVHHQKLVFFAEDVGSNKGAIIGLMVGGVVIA
Method: Aβ1-42 was dissolved in sterile deionized water to a final concentration of 1 mM. Then, the peptide was subjected to a basic shock by adding 2 M NaOH to pH 12 followed by neutralization with 1 M HCl. Aβ1-42, at a final concentration of 75 μM (pH 7.4) either alone or in combination with NL1 (1 μM), neurolide (10 μM), or NLp7 (10 μM), was loaded in triplicates on 96-well plate. Immediately after mixing the samples, thioflavin T (5 μM, ThT; Sigma-Aldrich), dissolved in the aggregation buffer (50 mM Tris, pH 7.4), was added to wells and plate was incubated at 37 °C for 8 days. The formation of beta-amyloid aggregates was monitored first for 210 min and then every 24 h by recording changes in ThT fluorescence at excitation/emission (Ex/Em) = 440/482 nm.

[5] = target: T4, brain-derived NEP (Mus musculus, UniProt Q61391); assay: Neprilysin activity in NEP-enriched brain membrane fraction of WT mice; assay type: biochemical, mouse (C57Bl/6j); settings: 40 μg protein, Thiorphan 100 nM
T4 construct: Clear supernatants were used as membrane-extracted fractions; from tissue; host or cells: adult mouse brain without cerebellum, Triton X-100-extracted membrane fraction
T4 sequence (Q61391 1-750): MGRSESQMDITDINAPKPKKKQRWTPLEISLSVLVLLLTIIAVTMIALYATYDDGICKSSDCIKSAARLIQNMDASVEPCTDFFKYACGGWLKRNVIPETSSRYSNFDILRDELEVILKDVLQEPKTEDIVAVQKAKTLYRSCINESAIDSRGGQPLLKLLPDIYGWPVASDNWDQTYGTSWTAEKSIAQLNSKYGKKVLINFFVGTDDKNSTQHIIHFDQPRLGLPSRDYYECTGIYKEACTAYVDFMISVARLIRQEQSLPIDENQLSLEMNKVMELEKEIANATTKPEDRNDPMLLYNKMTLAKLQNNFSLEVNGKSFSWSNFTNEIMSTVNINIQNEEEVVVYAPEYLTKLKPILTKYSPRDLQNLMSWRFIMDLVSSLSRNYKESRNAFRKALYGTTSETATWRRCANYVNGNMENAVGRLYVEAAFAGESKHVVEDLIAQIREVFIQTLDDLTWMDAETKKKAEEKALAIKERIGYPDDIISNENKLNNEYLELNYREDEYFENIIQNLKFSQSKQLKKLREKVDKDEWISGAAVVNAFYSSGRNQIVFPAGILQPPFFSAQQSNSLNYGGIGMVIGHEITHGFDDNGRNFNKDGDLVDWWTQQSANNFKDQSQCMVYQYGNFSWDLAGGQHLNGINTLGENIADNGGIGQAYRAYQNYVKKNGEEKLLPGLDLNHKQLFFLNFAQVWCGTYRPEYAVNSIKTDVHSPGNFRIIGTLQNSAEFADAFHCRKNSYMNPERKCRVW
Method: To measure NEP activity in brain tissue, whole brains without cerebellum were dissected from adult mice (C57Bl/6j or 5XFAD) and homogenized with a Teflon-glass homogenizer in five volumes (w/v) of ice-cold lysis buffer containing PBS (pH 7.4), 0.25 M sucrose and protease inhibitor cocktail (Complete™, EDTA-free, Roche Diagnostics, Indianapolis, IN). The homogenates were centrifuged at 9000 × g for 15 min at 4 °C. The supernatants were further centrifuged at 20,000 × g at 4 °C for 20 min. The resulting pellets were solubilized in resuspension buffer containing PBS (pH 7.4) and 1% Triton X-100 for 1 h on ice and again centrifuged at 20,000 × g at 4 °C for 20 min. Clear supernatants were used as membrane-extracted fractions. Protein concentrations of Triton-extracted membrane fractions were determined using the Pierce BCA Protein Assay kit (Thermo Fisher Scientific). The standard assay mixture consisted of membrane fraction containing 40 μg total protein diluted in 40 μl of dilution buffer, 10 μl of testing compound (NL1, neurolide or vehicle), and 50 μl of NEP substrate (5-FAM/QXL; Anaspec) in a total volume of 100 μl. The reaction was initiated by adding substrate to the assay mixture. […] Positive and negative controls were set up according to the manufacturer’s protocol (Anaspec). Fluorescence was measured at Ex/Em = 485/535 nm every 20 min for 2 h. The data were expressed as percentage of relative activity of neprilysin.

[6] = target: Biotinylated amyloid-β peptide 1-40 (Aβ1-40); assay: ELISA; competitive ELISA: NL1 (3.125 nM) coated on the plate; biotinylated Aβ1-40 (400 nM; Aβ40-1 as negative control) premixed 30 min with serially diluted NL1 or NL1-derived peptides; 4 h at room temperature; streptavidin-HRP; IC50 interpreted as KD

Recombinant rat neurexin-1β (NX1β), sequence (Q63373 47-391): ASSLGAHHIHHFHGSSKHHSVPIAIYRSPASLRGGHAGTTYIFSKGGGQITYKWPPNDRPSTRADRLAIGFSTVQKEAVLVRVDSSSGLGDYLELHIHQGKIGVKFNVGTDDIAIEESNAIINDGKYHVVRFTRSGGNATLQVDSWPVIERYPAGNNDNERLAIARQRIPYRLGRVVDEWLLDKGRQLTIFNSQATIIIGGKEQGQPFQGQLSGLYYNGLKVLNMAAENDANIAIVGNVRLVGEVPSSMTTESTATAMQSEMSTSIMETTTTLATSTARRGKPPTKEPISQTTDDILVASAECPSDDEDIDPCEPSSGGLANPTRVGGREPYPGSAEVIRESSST

Molecule: AHTKPNRFEA [NLp6, NL1-derived peptide …]
- KD (binding affinities to Aβ1-42, as in the table title) [1]: No binding

Molecule: ASDFDFAVSN [NLp5, NL1-derived peptide …]
- KD (binding affinities to Aβ1-42, as in the table title) [1]: No binding

Molecule: SGGPKPVMYIHG [NLp1, NL1-derived peptide …]
- KD (binding affinities to Aβ1-42, as in the table title) [1]: No binding

Molecule: Amyloid-β peptide 1-42 (Aβ1-42)
- Kd [2]: 72 nM

Molecule: SVPVTSAFPTAKQDDA [NLp7, NL1-derived peptide …]
- activity of recombinant NEP [3]: had no effect
- KD (binding affinities to Aβ1-42, as in the table title) [1]: No binding
- development of ThT fluorescence (Aβ aggregation) [4]: had no effect

Molecule: O=C(O)CNC(=O)C(CS)Cc1ccccc1 (stereo not shown) [Thiorphan, reference compound]
- activity of brain-derived NEP [5]: completely blocked

Molecule: CC[C@H](C)[C@H](N)C(=O)N[C@H](C(=O)N[C@H](C(=O)N[C@@H](CC(N)=O)C(=O)N[C@@H](Cc1ccc(O)cc1)C(=O)N[C@@H](CCCNC(=N)N)C(=O)N[C@@H](CC(C)C)C(=O)NCC(=O)NCCCC[C@H](NC(=O)CNC(=O)[C@H](CC(C)C)NC(=O)[C@H](CCCNC(=N)N)NC(=O)[C@H](Cc1ccc(O)cc1)NC(=O)[C@H](CC(N)=O)NC(=O)[C@@H](NC(=O)[C@@H](NC(=O)[C@@H](N)[C@@H](C)CC)[C@@H](C)O)C(C)C)C(=O)NCCCC[C@H](NC(=O)[C@H](CCCCNC(=O)CNC(=O)[C@H](CC(C)C)NC(=O)[C@H](CCCNC(=N)N)NC(=O)[C@H](Cc1ccc(O)cc1)NC(=O)[C@H](CC(N)=O)NC(=O)[C@@H](NC(=O)[C@@H](NC(=O)[C@@H](N)[C@@H](C)CC)[C@@H](C)O)C(C)C)NC(=O)CNC(=O)[C@H](CC(C)C)NC(=O)[C@H](CCCNC(=N)N)NC(=O)[C@H](Cc1ccc(O)cc1)NC(=O)[C@H](CC(N)=O)NC(=O)[C@@H](NC(=O)[C@@H](NC(=O)[C@@H](N)[C@@H](C)CC)[C@@H](C)O)C(C)C)C(N)=O)C(C)C)[C@@H](C)O [NLp2] (I: H-ITVNYRLGKK-NH2 / II: H-ITVNYRLGK / III: H-ITVNYRLG / IV: H-ITVNYRLG; amide I:9-IV:C, I:10-II:C, II:9-III:C; N-terminus and C-terminus assumed)
- development of ThT fluorescence (Aβ aggregation) [4]: had no effect

Molecule: AENIVDSDDG [NLp4, NL1-derived peptide …]
- activity of recombinant NEP [3]: had no effect
- KD (binding affinities to Aβ1-42, as in the table title) [1]: No binding

Molecule: ATADLHSNFGS [NLp8, NL1-derived peptide …]
- KD (binding affinities to Aβ1-42, as in the table title) [1]: No binding

Molecule: ASFQPAKYA [NLp3, NL1-derived peptide …]
- KD (binding affinities to Aβ1-42, as in the table title) [1]: No binding

Molecule: Recombinant rat neurexin-1β (NX1β) (from UniProt Q63373 47-391) (natural protein)
- Kd [2]: 6.64 nM

Molecule: ITVNYRLG (also: tetramer: four copies coupled to a lysine backbone) [NLp2, NL1-derived synthetic peptide (tetramer on a lysine backbone)]
- Kd [6]: 676 nM

Molecule: SEGNRWSNSTKGLFQRA (also: tetramer: four copies coupled to a lysine backbone) [Neurolide, NL1-derived synthetic peptide (tetramer on a lysine backbone)]
- Kd [6]: 35.3 nM
